Nine compounds from ChEMBL document CHEMBL3797099, “Re-exploration of the mGlu₁ PAM Ro 07-11401 scaffold: Discovery of analogs with improved CNS penetration despite steep SAR” (Bioorg Med Chem Lett, 2016) can be followed below.

One series has as its target Cytochrome P450 3A4 (Homo sapiens, UniProt P08684). Description: Inhibition of CYP3A4 (unknown origin). The format is ADME.
In series [1] the test system is Plasma. Description: Fraction unbound in rat plasma. The format is ADME, cell-free.
Series [2] can be described thus: Fraction unbound in human plasma. The format is ADME, cell-free.
The nature of series [3]: Intrinsic clearance in human liver microsomes. The format is ADME. As to conditions: read-out: CLH.
Series [4] addresses Metabotropic glutamate receptor 1 (Rattus norvegicus, UniProt P23385). The series can be described thus: Positive allosteric modulation of rat mGlu1 receptor assessed as increase in glutamate-induced calcium mobilization. The format is functional.
Series [5] concerns Brain. Description: Fraction unbound in rat brain homogenate. It counts as ADME, tissue-based.
Series [6] has as its system Brain. The series can be described thus: Drug uptake in rat brain at 0.25 mg/kg, iv measured at the last time point. The format is ADME, organism-based. Particulars: in vivo.
In series [7] the target is T1, Metabotropic glutamate receptor 1 (Homo sapiens, UniProt Q13255). The series can be described thus: Positive allosteric modulation of human mGlu1 receptor assessed as increase in glutamate-induced calcium mobilization relative to glutamate. It counts as functional. In general terms: A change in cytosolic calcium serves as a functional read-out for many receptors and channels.
Target sequence in this assay (Q13255 19-1194 limits assumed): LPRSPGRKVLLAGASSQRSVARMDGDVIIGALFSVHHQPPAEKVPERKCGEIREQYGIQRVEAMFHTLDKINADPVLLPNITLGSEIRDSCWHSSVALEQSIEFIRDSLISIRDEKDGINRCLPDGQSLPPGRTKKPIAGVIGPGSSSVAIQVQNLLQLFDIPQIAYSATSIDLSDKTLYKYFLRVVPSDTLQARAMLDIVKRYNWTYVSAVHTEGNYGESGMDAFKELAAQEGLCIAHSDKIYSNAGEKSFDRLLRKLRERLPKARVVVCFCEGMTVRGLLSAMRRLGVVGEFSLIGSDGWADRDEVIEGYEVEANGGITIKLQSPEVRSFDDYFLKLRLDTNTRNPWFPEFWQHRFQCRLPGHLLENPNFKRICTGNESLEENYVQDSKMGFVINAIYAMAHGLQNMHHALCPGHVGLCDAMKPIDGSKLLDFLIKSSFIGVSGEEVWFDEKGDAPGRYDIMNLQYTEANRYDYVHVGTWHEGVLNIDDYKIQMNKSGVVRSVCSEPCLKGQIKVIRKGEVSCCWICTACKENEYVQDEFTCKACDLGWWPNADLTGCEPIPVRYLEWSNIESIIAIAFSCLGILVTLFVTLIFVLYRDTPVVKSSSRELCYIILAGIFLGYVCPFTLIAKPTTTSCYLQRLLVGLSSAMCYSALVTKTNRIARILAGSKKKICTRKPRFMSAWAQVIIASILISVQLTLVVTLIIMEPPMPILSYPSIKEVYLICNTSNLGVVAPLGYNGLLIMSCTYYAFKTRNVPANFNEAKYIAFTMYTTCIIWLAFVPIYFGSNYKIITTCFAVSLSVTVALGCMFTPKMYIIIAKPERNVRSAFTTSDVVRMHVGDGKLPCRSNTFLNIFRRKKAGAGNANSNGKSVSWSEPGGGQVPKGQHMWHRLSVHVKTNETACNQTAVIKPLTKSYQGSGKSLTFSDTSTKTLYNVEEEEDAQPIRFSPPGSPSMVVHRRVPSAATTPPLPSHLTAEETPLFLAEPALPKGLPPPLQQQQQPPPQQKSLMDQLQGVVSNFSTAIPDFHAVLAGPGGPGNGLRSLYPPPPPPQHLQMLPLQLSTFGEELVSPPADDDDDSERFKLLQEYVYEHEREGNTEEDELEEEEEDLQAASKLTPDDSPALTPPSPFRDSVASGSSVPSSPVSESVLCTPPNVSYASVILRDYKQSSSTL

Series [8] deals with T1, Metabotropic glutamate receptor 1. Description: Positive allosteric modulation of human mGlu1 receptor assessed as potentiation of glutamate-induced effect at 10 uM relative to control.
Target sequence in this assay (Q13255 19-1194 limits assumed): as above
Series [9] shares this target. The series can be described thus: Positive allosteric modulation of human mGlu1 receptor assessed as increase in glutamate-induced calcium mobilization. The format is functional.
Target sequence in this assay (Q13255 whole entry): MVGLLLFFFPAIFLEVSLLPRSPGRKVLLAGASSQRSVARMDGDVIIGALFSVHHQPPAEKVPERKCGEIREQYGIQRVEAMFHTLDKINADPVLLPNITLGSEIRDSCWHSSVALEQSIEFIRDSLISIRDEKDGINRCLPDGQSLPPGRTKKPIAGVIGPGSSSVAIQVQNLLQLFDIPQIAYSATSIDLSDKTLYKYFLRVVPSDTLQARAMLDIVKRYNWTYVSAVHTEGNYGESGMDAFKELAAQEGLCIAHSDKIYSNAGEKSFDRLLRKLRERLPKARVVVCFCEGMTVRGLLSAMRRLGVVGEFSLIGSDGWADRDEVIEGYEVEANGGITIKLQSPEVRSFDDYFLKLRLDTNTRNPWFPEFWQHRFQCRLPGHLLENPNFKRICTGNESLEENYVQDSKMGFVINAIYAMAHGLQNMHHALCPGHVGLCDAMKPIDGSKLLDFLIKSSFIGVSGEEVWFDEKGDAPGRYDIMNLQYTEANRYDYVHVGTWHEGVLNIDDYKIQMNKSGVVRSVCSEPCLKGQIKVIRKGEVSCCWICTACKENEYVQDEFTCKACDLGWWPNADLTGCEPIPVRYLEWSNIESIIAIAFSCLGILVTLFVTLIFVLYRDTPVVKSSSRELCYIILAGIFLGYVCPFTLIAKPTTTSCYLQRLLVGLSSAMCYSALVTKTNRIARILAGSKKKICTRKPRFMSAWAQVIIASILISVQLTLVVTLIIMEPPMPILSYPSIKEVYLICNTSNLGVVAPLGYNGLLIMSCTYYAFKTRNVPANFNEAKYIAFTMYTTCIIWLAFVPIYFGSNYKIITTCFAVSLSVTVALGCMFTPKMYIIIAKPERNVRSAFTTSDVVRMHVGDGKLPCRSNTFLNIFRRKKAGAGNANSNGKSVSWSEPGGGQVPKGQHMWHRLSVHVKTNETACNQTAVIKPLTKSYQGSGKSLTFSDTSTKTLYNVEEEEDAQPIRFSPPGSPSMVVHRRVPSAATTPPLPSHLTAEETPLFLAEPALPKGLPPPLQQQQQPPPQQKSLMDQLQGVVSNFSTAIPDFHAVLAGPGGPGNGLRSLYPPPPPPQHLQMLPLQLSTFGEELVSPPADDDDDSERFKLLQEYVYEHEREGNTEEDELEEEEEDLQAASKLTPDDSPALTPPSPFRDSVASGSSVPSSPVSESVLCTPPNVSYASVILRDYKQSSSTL
Another series deals with T2, Cytochrome P450 1A2 (Homo sapiens, UniProt P05177).
T2 sequence (P05177 whole entry): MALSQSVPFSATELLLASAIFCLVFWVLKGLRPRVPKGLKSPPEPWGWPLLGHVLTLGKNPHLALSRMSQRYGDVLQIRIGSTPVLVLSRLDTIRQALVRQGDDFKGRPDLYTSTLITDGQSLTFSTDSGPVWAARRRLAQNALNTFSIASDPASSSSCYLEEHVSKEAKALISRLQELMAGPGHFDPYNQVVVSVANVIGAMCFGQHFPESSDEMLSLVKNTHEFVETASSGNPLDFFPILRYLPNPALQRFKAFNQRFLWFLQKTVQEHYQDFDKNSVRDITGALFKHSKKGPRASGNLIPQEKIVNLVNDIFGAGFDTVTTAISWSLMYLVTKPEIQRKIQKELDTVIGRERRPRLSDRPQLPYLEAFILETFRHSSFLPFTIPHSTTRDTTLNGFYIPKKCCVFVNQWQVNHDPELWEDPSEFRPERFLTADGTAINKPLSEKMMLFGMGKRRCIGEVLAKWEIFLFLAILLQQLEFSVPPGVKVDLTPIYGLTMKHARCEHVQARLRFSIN
Description: Inhibition of CYP1A2 (unknown origin). The format is ADME.

The target in the next series is Cytochrome P450 2D6 (Homo sapiens, UniProt P10635). Description: Inhibition of CYP2D6 (unknown origin). The format is ADME.
Series [10] in a line: Ratio of drug level in brain to plasma in rat at 0.25 mg/kg, iv. The format is ADME, organism-based.
Series [11] addresses T1, Metabotropic glutamate receptor 1. Description: Positive allosteric modulation of human mGlu1 receptor assessed as glutamate efficacy at 10 uM (reference value: 95.2 +/- 3.5 %).
Target sequence in this assay (Q13255 19-1194 limits assumed): as the sequence (Q13255 19-1194 limits assumed) above
The target in a further series is Cytochrome P450 2C9 (Homo sapiens, UniProt P11712). Description: Inhibition of CYP2C9 (unknown origin). The format is ADME.
The test system of series [12] is Plasma. The series can be described thus: Plasma concentration in rat at 0.25 mg/kg, iv measured at the last time point. It counts as ADME, organism-based. As to conditions: in vivo.
Series [13] deals with Metabotropic glutamate receptor 1 (Rattus norvegicus) (UniProt P23385). The series can be described thus: Positive allosteric modulation of rat mGlu1 receptor assessed as increase in glutamate-induced calcium mobilization relative to glutamate. The format is functional.
The target in series [14] is T1, Metabotropic glutamate receptor 1. Description: Positive allosteric modulation of human mGlu1 receptor expressed in wild type T-Rex 293 cells assessed as increase in glutamate-induced calcium mobilization incubated for 2 mins before glutamate stimulation for 2.2 mins. It counts as functional, cell-based.
Target sequence in this assay (Q13255 whole entry): as the sequence (Q13255 whole entry) above
The target is the same in series [15]. Description: Positive allosteric modulation of human mGlu1 receptor expressed in wild type T-Rex 293 cells assessed as increase in glutamate-induced calcium mobilization incubated for 2 mins before glutamate stimulation for 2.2 mins relative to glutamate. It counts as functional, cell-based.
Target sequence in this assay (Q13255 19-1194 limits assumed): as the sequence (Q13255 19-1194 limits assumed) above

Metabotropic glutamate receptor 1 (Rattus norvegicus, UniProt P23385), sequence (P23385 whole entry): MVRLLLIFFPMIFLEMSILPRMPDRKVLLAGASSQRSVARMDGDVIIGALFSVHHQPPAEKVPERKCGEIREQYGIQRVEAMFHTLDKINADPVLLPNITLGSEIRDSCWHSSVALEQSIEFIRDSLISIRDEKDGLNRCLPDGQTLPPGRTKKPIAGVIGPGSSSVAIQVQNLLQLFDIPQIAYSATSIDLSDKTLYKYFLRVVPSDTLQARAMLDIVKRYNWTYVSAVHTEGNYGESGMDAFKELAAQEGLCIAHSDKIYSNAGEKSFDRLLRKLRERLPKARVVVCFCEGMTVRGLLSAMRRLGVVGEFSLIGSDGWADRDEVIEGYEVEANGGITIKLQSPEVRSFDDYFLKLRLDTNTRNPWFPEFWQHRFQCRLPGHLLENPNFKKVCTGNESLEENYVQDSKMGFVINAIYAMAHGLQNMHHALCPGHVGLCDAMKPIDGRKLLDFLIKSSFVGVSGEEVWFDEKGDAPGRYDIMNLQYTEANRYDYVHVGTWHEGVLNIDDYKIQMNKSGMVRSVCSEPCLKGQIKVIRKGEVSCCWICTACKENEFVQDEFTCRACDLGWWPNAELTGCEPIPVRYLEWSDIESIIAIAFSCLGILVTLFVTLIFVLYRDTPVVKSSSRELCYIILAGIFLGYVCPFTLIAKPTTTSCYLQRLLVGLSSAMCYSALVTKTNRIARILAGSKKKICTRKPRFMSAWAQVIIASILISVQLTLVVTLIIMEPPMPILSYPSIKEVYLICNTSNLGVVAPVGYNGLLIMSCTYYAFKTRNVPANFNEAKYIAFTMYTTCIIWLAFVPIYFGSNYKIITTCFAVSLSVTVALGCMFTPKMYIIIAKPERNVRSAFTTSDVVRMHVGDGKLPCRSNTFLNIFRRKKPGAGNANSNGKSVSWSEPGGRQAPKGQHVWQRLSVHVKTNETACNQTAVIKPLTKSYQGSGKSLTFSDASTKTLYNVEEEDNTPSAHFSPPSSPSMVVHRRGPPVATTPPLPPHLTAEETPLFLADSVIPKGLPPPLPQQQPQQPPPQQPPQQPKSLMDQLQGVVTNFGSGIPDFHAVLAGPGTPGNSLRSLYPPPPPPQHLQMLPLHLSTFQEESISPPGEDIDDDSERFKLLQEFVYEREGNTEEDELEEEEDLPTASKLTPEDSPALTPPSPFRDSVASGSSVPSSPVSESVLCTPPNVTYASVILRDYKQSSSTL
Metabotropic glutamate receptor 1 (Rattus norvegicus), sequence (P23385 19-1199 limits assumed): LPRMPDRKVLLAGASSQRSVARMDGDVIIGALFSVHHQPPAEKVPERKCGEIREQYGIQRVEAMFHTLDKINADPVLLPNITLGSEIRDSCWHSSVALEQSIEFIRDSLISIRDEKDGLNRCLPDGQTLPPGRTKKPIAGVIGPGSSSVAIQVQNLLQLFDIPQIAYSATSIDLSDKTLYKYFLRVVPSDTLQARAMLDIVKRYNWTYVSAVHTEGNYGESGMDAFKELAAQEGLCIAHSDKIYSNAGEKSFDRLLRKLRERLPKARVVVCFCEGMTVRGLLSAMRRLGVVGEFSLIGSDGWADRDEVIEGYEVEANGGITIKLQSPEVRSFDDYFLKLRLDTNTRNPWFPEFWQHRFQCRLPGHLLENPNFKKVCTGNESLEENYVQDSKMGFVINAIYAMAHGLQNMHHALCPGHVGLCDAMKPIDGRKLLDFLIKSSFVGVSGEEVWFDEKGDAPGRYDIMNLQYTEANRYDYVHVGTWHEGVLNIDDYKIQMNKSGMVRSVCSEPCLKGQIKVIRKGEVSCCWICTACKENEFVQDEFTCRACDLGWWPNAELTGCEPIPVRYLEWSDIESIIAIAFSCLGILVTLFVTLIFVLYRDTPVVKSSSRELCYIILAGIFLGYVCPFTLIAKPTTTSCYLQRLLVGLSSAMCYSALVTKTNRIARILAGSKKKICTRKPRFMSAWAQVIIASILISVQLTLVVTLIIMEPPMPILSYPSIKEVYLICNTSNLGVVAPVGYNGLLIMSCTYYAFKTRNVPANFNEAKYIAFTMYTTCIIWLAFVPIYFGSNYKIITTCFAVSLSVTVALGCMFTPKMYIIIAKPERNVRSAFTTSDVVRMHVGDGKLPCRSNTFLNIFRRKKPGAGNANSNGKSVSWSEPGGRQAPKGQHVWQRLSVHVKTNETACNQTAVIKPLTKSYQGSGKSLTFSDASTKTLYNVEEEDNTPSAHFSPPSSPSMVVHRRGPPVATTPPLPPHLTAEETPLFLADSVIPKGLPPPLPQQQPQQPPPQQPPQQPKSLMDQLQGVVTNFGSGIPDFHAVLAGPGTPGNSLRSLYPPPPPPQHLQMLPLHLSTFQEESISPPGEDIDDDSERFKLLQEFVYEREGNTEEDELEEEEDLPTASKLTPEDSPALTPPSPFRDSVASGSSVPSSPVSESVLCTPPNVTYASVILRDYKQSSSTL

Turning to `CC(C)c1csc(NC(=O)C2c3ccccc3Oc3ccccc32)n1`, the half-inhibitory concentration (IC50) against Cytochrome P450 3A4 is more than 30000 nM; at Cytochrome P450 1A2 it was 19000 nM; on Cytochrome P450 2D6, 26500 nM; against Cytochrome P450 2C9, 2100 nM. For the same compound, the results for the Fu (in the series on Plasma [1]; in [2]; in the series on Brain [5]) were 0.002, 0.001 and 0.001, respectively. In series [3], the CLint scaled stood at 15.5 mL/min/kg. Also, the values for the EC50 in series [4] (read-out: EC50) and in [9] (read-out: EC50) were 2400 nM and 900 nM, respectively. The compound further came in with a Drug uptake in the series on Brain [6] of 78.7 ng/g. In addition, the %max in series [7] stood at 89%; in series [13], 111%. In series [8], the fold change (FC) was determined as 4.6. Besides, in series [10], the Kp turned out to be 1.01. In addition, in series [11], the Efficacy stood at 115%. Further, the Cp with Plasma [12] was 77.8 ng/mL.

On to `O=C(Nc1cncs1)C1c2ccccc2Oc2ccccc21`, for which the %max in series [7] came out at 54%. Also, in series [9], the pEC50 is less than 5. Besides, in [9] (read-out: EC50), the EC50 was more than 10000 nM.

Consider `O=C(Nc1nc(C(F)(F)F)co1)C1c2ccccc2Oc2ccccc21`, for which the IC50 at Cytochrome P450 3A4 and on Cytochrome P450 2D6 was more than 30000 nM throughout. Moreover, the EC50 was 276 nM in [4] (read-out: EC50) and 246 nM in series [14]. The compound also had a Fu with Brain [5] of 0.001. For the same compound, the Drug uptake in the series with Brain [6] was 81 ng/g. Further, the fold change (FC) in series [8] is 6.9. In addition, in [10], the Kp stood at 0.29. Moreover, the Efficacy in series [11] turned out to be 109%. The %max in series [15] was determined as 96%; in series [13], 109%. Moreover, the Cp in the series with Plasma [12] was 276 ng/mL.

Regarding `O=C(Nc1ccccn1)C1c2ccccc2Oc2ccccc21`, the %max in series [7] was 58%. In addition, in series [9] (read-out: EC50), the EC50 stood at 1700 nM.

`N#Cc1csc(NC(=O)C2c3ccccc3Oc3ccccc32)n1`: the IC50 on Cytochrome P450 3A4 is more than 30000 nM; on Cytochrome P450 1A2 it was 2900 nM; at Cytochrome P450 2D6, 10300 nM; against Cytochrome P450 2C9 it was 2900 nM. Further, the Fu in the series with Plasma [1] turned out to be 0.005; in series [2], 0.027; with Brain [5], 0.017. The CLint scaled in series [3] was 9.85 mL/min/kg. Further, the EC50 in [4] (read-out: EC50) is 1800 nM; in series [9] (read-out: EC50) it was 710 nM; in [9] (read-out: pEC50 (converted)), 724 nM. The compound further returned a Drug uptake in the series on Brain [6] of 83.6 ng/g. For the same compound, the results for the %max in [7] and in series [13] were 110% and 124%, respectively. Further, the fold change (FC) in series [8] stood at 5.4. Moreover, in series [10], the Kp is given as 1.19. For the same compound, the Efficacy in series [11] is 115%. Moreover, the Cp with Plasma [12] turned out to be 80.2 ng/mL.

For the compound `Cc1nc(NC(=O)C2c3ccccc3Oc3ccccc32)sc1C`, the %max in series [7] was 68%. Also, the pEC50 in series [9] is less than 5. The EC50 in [9] (read-out: EC50) is more than 10000 nM.

Consider `O=C(Nc1nc2ccccc2s1)C1c2ccccc2Oc2ccccc21`, for which the %max in [7] is 96%. Further, in series [9] (read-out: EC50), the EC50 came to 4800 nM.

With `O=C(Nc1nccs1)C1c2ccccc2Oc2ccccc21`, the EC50 was 3600 nM in [4] (read-out: EC50), 3720 nM in series [4] (read-out: pEC50 (converted)) and 1400 nM in series [9] (read-out: EC50). The %max in series [7] amounted to 75%; in [13], 111%.

For `Cc1nsc(NC(=O)C2c3ccccc3Oc3ccccc32)n1`, the %max in series [7] was determined as 101%. For the same compound, the EC50 in [9] (read-out: EC50) worked out at 2700 nM.

One may read the IC50 as the concentration at which inhibition is half-maximal. The Kp is tissue or fluid exposure divided by exposure in the circulation. One may read the pEC50 as the negative decadic logarithm of the EC50, by convention in mol/L.
